Measured values as given in ChEMBL document CHEMBL1129061, “Inhibition of human glutathione reductase by 10-arylisoalloxazines: crystalline, kinetic, and electrochemical studies” (J Med Chem, 1996).

These compounds were tested against T1, Glutathione reductase, mitochondrial (Homo sapiens, UniProt P00390) (assay: Inhibitory activity against human glutathione reductase in presence of 100 uM GSSG).
T1 sequence (P00390 whole entry): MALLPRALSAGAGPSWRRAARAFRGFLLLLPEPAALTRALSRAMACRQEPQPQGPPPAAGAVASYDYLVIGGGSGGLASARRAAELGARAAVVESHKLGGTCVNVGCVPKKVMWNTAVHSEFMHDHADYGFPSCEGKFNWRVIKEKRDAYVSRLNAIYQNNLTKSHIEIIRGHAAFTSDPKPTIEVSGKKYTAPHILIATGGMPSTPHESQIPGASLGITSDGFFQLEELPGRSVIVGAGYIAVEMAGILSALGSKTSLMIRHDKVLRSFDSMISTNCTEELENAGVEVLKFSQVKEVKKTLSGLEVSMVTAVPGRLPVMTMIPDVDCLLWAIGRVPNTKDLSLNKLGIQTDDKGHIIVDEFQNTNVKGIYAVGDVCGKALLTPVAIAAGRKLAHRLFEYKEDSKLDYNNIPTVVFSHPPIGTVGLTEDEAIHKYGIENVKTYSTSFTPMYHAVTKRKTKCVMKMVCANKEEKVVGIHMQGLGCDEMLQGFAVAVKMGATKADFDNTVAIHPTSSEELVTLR
`Cn1c(=O)nc2n(-c3cc(Cl)cc(Cl)c3)c3ccccc3nc-2c1=O` showed an IC50 of under 1 µM.
Work on `O=c1nc2n(-c3cccc(C(F)(F)F)c3)c3ccccc3nc-2c(=O)[nH]1` yielded an IC50 of 1 µM.
In the case of `O=c1nc2n(-c3ccc(Cl)cc3)c3ccccc3nc-2c(=O)[nH]1`, the IC50 is reported as under 1 µM.
`O=c1nc2n(-c3c(F)c(F)c(F)c(F)c3F)c3ccccc3nc-2c(=O)[nH]1` showed an IC50 of 3.5 µM.
`O=c1nc2n(-c3cc(C(F)(F)F)cc(C(F)(F)F)c3)c3ccccc3nc-2c(=O)[nH]1` was tested, and the IC50 was 3.5 µM.
`CCOC(=O)Cn1c(=O)nc2n(-c3cc(Cl)cc(Cl)c3)c3ccccc3nc-2c1=O` showed an IC50 of 7 µM.
Work on `CCOC(=O)Cn1c(=O)nc2n(-c3ccc(Cl)cc3)c3ccccc3nc-2c1=O` yielded an IC50 of 18 µM.
`O=C(O)Cn1c(=O)nc2n(-c3cc(C(F)(F)F)cc(C(F)(F)F)c3)c3ccccc3nc-2c1=O` gave an IC50 of 25 µM.
Compound `Cn1c(=O)nc2n(-c3ccncc3)c3ccccc3nc-2c1=O` has an IC50 of 3 µM.
With `Cn1c(=O)nc2n(-c3cc[n+](C)cc3)c3ccccc3nc-2c1=O` the IC50 was 40 µM.
In the case of `Cn1c(=O)nc2n(-c3cccc4ccccc34)c3ccccc3nc-2c1=O`, the IC50 is reported as 2 µM.
`Cn1c(=O)nc2n(-c3cc(C(F)(F)F)cc(C(F)(F)F)c3)c3ccccc3nc-2c1=O` was tested, and the IC50 was 5 µM.
With `O=C(O)Cn1c(=O)nc2n(-c3ccc(Cl)cc3)c3ccccc3nc-2c1=O` the IC50 was 12 µM.
In the case of `Cn1c(=O)nc2n(-c3ccc(Cl)cc3)c3cc(F)ccc3nc-2c1=O`, the IC50 is reported as 1 µM.
With `Cn1c(=O)nc2n(-c3c(F)c(F)c(F)c(F)c3F)c3ccccc3nc-2c1=O` the IC50 was under 1 µM.
`Cn1c(=O)nc2n(-c3ccccc3)c3ccccc3nc-2c1=O` gave an IC50 of 2 µM.
Work on `Cn1c(=O)nc2n(-c3cccc4cc5ccccc5cc34)c3ccccc3nc-2c1=O` yielded an IC50 of 4 µM.
`CCOC(=O)Cn1c(=O)nc2n(-c3cc(C(F)(F)F)cc(C(F)(F)F)c3)c3ccccc3nc-2c1=O` was tested, and the IC50 was 100 µM.
For `Cn1c(=O)nc2n(-c3ccc(Cl)cc3)c3cc(N=[N+]=[N-])ccc3nc-2c1=O`, the IC50 was 2.5 µM.
`CCOC(=O)Cn1c(=O)nc2n(-c3cccc(C(F)(F)F)c3)c3ccccc3nc-2c1=O` showed an IC50 of 8 µM.
`Cn1c(=O)nc2n(-c3cccc(C(F)(F)F)c3)c3ccccc3nc-2c1=O` was tested, and the IC50 was 1 µM.
For `O=c1nc2n(-c3cc(Cl)cc(Cl)c3)c3ccccc3nc-2c(=O)[nH]1`, the IC50 was under 1 µM.
`Cn1c(=O)nc2n(-c3cccnc3)c3ccccc3nc-2c1=O` was tested, and the IC50 was 8 µM.
Work on `Cn1c(=O)nc2n(-c3ccc(Cl)cc3)c3ccccc3nc-2c1=O` yielded an IC50 of under 1 µM.
`O=C(O)Cn1c(=O)nc2n(-c3cccc(C(F)(F)F)c3)c3ccccc3nc-2c1=O` showed an IC50 of 20 µM.
`O=C(O)Cn1c(=O)nc2n(-c3cc(Cl)cc(Cl)c3)c3ccccc3nc-2c1=O` gave an IC50 of 14 µM.
